Experimental data: patent US20220280513A1, “ENHANCING THE ANTIVIRAL EFFICACY OF RNA VIRUS INHIBITION BY COMBINATION WITH MODULATORS OF PYRIMIDINE METABOLISM” (The Board of Trustees of the Leland Stanford Junior …, priority 2019, published 2022)

Molecular target: T1, recombinant human UCK2 (Homo sapiens, UniProt Q9BZX2)
T1 construct: 6xHis (C); made in house; host or cells: E. coli BL21(DE3)
T1 sequence (Q9BZX2 1-261): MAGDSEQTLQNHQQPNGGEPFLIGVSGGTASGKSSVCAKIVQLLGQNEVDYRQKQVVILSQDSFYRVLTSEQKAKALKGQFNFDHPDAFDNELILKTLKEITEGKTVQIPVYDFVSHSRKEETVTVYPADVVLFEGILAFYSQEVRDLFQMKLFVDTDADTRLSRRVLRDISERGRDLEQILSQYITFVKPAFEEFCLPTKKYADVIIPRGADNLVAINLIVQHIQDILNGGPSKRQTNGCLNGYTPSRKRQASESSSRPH
Assay: In vitro enzyme activity assay with recombinant human UCK2 (PK/LDH-coupled, UV 340 nm)
Type: biochemical
Source text: In order to guide our SAR studies, we developed an enzymatic assay to evaluate the inhibitory effect of each CPU analog against recombinant human UCK2, which was expressed and purified in E. coli. A continuous assay system was optimized by coupling UCK2 activity to the pyruvate kinase (PK) reaction, which in turn was coupled to lactate dehydrogenase (LDH). Overall reaction progress was continuously monitored by detecting the UV absorption change at 340 nm, which was correlated with the ATP consumption by UCK2. The effect of 250 μM of each CPU analog on UCK2 activity was evaluated in the presence of 50 μM uridine. […] We then individually measured the steady state kinetic parameters of UCK2 using uridine, CPU and 5-F-CPU as substrates. Their KM values were 86, 25, and 41 μM, and their kcat/KM values were 2.6×10^5, 1.5×10^5, and 7.3×10^4 s^−1 M^−1 (FIG. 5B).
Cloning, expression and purification of recombinant human UCK2 and CMPK1: Uridine cytidine kinase 2 (UCK2) was cloned into the pET-21a(+) vector using Ndel and Notl as restriction sites. […] The resulting plasmid was transformed into E. coli BL21(DE3) cells by electroporation, recovered in SOC at 37° C. for 1 h and plated onto LB agar plates with kanamycin overnight at 37° C. A single, isolated colony was inoculated into 30 mL LB supplemented with 50 μg/mL kanamycin and grown at 37° C. with shaking for 15 h. The next day, these cells were used to inoculate 1 L autoclaved LB with 50 μg/mL kanamycin. The flask was shaken at 37° C. When an optical density (OD600) of 0.7 was reached, protein expression was induced with 0.5 mM isopropyl β-D-1-thiogalactopyranoside (IPTG). The temperature was changed to 18° C. and flasks were shaken for an additional 15 h. The cell pellets were collected by spinning the media at 5000 rpm for 10 min. The pellets obtained were frozen by liquid nitrogen and stored in −80° C. for protein purification. Cell pellets were thawed and resuspended in lysis buffer containing Tris (40 mM, pH 7.5), NaCl (10 mM), imidazole (10 mM), DTT (1 mM). Cells were lysed by sonication and centrifuged at 25,000 g for 1 h. The supernatant was incubated with a slurry of Ni-NTA resin for 1 h at 4° C. and loaded onto a column. The nickel column wash buffer was Tris (40 mM, pH 7.5), NaCl (10 mM), DTT (1 mM) and each wash step contained increasing concentrations of imidazole (10, 50, or 250 mM). After SDS-PAGE confirmation of the protein fractions, protein was further purified using fast protein liquid chromatography (FPLC) using buffer A (50 mM Tris-HCl pH 8, 1 mM dithiothreitol (DTT), 10% glycerol) and elution buffer B (50 mM Tris-HCl pH 8, 1mM dithiothreitol (DTT), 10% glycerol with 500 mM NaCl) with changing gradient over a 20 minute from 2% to 100% Buffer B. FPLC eluents containing the protein was concentrated using Am icon centrifugal filter with 3K cut-off and the enzyme was stored in storage buffer (50 mM Tris-HCl pH 7.5, 10% glycerol). Human cytidine monophosphate kinase 1 (CMPK1) was purified as previously described (Deans et al., 2016).
In vitro enzyme activity assays with recombinant human UCK2: To continuously monitor reaction progress spectrophotometrically, ATP hydrolysis was coupled to NADH oxidation via pyruvate kinase (PK) and lactate dehydrogenase (LDH). Reactions were conducted at room temperature in 100 μL in 96-well plates (Greiner Bio-One, UV-Star, Half Area). Mixtures contained 20 mM HEPES (pH 7.2), 100 mM KCl, 2 mM MgCl2, 300 μM ATP, 0-500 μM uridine, 0-500 μM CPU analogs, 10 nM UCK2, 1 mM phosphoenolpyruvate, 500 μM NADH and 20 units/mL of PK and LDH. Progress was monitored in the linear region using a Biotek Synergy HT and kinetic and inhibition constants were determined using GraphPad Prism 7 (GraphPad Software).

O=c1ccn([C@@H]2C=C(CO)[C@@H](O)[C@H]2O)c(=O)[nH]1 [CPU, 1-((1R,4R,5S)-4,5-dihydroxy-3-(hydroxymethyl)cyclopent-2-en-1-yl)pyrimidine-2,4(1H,3H)-dione]
UCK2 substrate or not (ATP consumption) (250 μM analog in the presence of 50 μM uridine): substrates of UCK2 | rate of UMP synthesis (added to assay mixture containing UCK2, uridine (50 μM) and ATP): dose-dependent decrease
